According to the NIST ThermoML archive (doi:10.1016/j.fluid.2015.10.016):
Numbers after ± are expanded uncertainties.

Assays:
[1] = Molar enthalpy of transition or fusion; details: Crystal; DSC
[2] = Crystal; DTA

SMILES | Molar enthalpy of transition or fusion [1] | Normal melting temperature [2]
CCCC[N+]1(C)CCCC1.N#CC(=C=[N-])C#N [1-butyl-1-methylpyrrolidinium tricyanomethanide] | 2.25 ± 0.0789 kcal/mol | -8.8 ± 0.4 °C
OCCc1ccccc1 [2-phenylethanol] | 2.31 ± 0.0956 kcal/mol | -27 ± 1 °C
CCCC[N+]1(C)CCCC1.O=S(=O)([O-])C(F)(F)F [1-butyl-1-methylpyrrolidinium trifluoromethanesulfonate] | 2.88 ± 0.0908 kcal/mol | -0.2 ± 0.4 °C
CCCC[N+]1(C)CCCC1.N#C[B-](C#N)(C#N)C#N [1-butyl-1-methylpyrrolidinium tetracyanoborate] | 4.97 ± 0.117 kcal/mol | 19.7 ± 0.4 °C
